Results from ChEMBL document CHEMBL1135678, “Pyrimidoquinazoline-based antitumor agents. Design of topoisomerase II to DNA cross-linkers with activity against protein kinases” (2002).
The source made the active and inactive calls. The rule behind the calls is not given here.

Experiments:
HT-29 [1] = experiment: Compound tested for cytotoxicity against human cancer cell line (HT-29 colon); Inactive; type: functional, cell-based
HT-29 [2] = experiment: Compound tested for cytotoxicity against human cancer cell line (HT-29 colon); type: functional
OVCAR-3 = experiment: Compound tested for cytotoxicity against human cancer cell line (Ovcar 3 ovarian); type: functional; conditions: read-out: LC50 (the source's name)
WiDr = experiment: Compound tested for cytotoxicity against human cancer cell line (WiDr Colon); type: functional; conditions: read-out: LC50 (the source's name)

SMILES: COCCCn1c(CCl)nc2c(OC)c3c(=O)n(CCCOC)c(CCl)nc3c(OC)c2c1=O
- IA (HT-29 [1]): inactive

SMILES: COCCn1c(CCl)nc2c(OC)c3c(=O)n(CCOC)c(CCl)nc3c(OC)c2c1=O
- IA (HT-29 [1]): inactive

SMILES: CCCn1c(CCl)nc2cc3c(=O)n(CCC)c(CCl)nc3cc2c1=O
- LC50 (50% lethal concentration) (HT-29 [2]): 0.8 µM

SMILES: CC(=O)Oc1nc2cc3c(=O)n(C)c(OC(C)=O)nc3cc2c(=O)n1C
- LC50 (50% lethal concentration) (HT-29 [2]): 19 µM

SMILES: Cn1c(CCl)nc2cc3c(=O)n(C)c(CCl)nc3cc2c1=O
- CC50 (OVCAR-3): 2 µM
- CC50 (WiDr): 0.35 µM

SMILES: Oc1nc(CCl)nc2cc3c(O)nc(CCl)nc3cc12
- CC50 (WiDr): 5 µM

SMILES: Cn1c(CBr)nc2cc3c(=O)n(C)c(CBr)nc3cc2c1=O
- LC50 (50% lethal concentration) (HT-29 [2]): 0.28 µM

SMILES: COc1c2nc(CCl)n(C)c(=O)c2c(OC)c2nc(CCl)n(C)c(=O)c12
- LC50 (50% lethal concentration) (HT-29 [2]): 0.11 µM

SMILES: Oc1nc(CBr)nc2cc3c(O)nc(CBr)nc3cc12
- CC50 (OVCAR-3): 0.85 µM
- CC50 (WiDr): 0.9 µM

SMILES: COc1c2nc(CCl)n(C)c(=O)c2c(OC)c2c(=O)n(C)c(CCl)nc12
- LC50 (50% lethal concentration) (HT-29 [2]): 6.33 µM
